The experiment addresses T1, human ACC2 (Homo sapiens, UniProt O00763).
T1 construct: made in house; host or cells: insect cells (baculoviral expression system)
Briefly: ACC2 assay, spectrophotometric 384 well assay (NADH-linked, coupled lactate dehydrogenase/pyruvate kinase). The note with it: ACC2 assay; human ACC2 construct lacking 128 N-terminal amino acids; 25° C., 340 nm, 15 minutes; read-out: IC50. Type of experiment: biochemical. The procedure:
Spectrophotometric 384 Well Assay
Malonyl CoA formation by acetyl CoA carboxylases is stoichometrically linked to the consumption of ATP. ACC2 activity is measured in a NADH-linked kinetic method measuring ADP generated during the ACC reaction using a coupled lactate dehydrogenase/pyruvate kinase reaction.
For biological testing, a human ACC2 construct which lacks the 128 amino acids at the N-terminus for increased solubility (nt 385-6966 in Genbank entry AJ575592) is cloned. The protein is then expressed in insect cells using a baculoviral expression system. Protein purification is performed by anion exchange.
All compounds are dissolved in dimethyl sulfoxide (DMSO) to a concentration of 10 mM.
Assay reactions are then carried out in 384-well plates, with hACC2 in an appropriate dilution and at final assay concentrations (f.c.) of 100 mM Tris (pH 7.5), 10 mM trisodium citrate, 25 mM KHCO3, 10 mM MgCl2, 0.5 mg/ml BSA, 3.75 mM reduced L-glutathione, 15 U/ml lactate dehydrogenase, 0.5 mM phosphoenolpyruvate, 15 U/ml pyruvate kinase, compounds at different concentrations at final DMSO concentrations of 1%.
The enzymatic reaction is then started by addition of a mixture of NADH, acetyl Coenzyme A (both […].) and ATP (500 uM f.c.). The decrease of the optical density (slope S) is then determined at 25° C. at a wavelength of 340 nm over 15 minutes in a spectrophotometric reader.
Each assay microtiter plate contains wells with vehicle instead of compound as controls for the non-inhibited enzyme (100% CTL; ‘HIGH’) and wells without acetyl-CoA as controls for non-specific NADH degradation (0% CTL; ‘LOW’).
The slope S is used for calculation of % CTL=(S(compound)−S(‘LOW’))/(S(‘HIGH’)−S(‘LOW’))100. Compounds will give values between 100% CTL (no inhibition) and 0% CTL (complete inhibition).
For IC50 value determination, the sample slope in the presence of the test compound after subtraction of the low controls (S(compound)−S(‘LOW’)) are used.
An IC50 value is derived from the compound slopes at different dosages after subtraction of the low controls (S(compound)−S(‘LOW’)) by non-linear regression curve fitting (equation y=(A+((B−A)/(1+((C/x)^D))))).
T1 sequence (O00763 129-2458 limits assumed): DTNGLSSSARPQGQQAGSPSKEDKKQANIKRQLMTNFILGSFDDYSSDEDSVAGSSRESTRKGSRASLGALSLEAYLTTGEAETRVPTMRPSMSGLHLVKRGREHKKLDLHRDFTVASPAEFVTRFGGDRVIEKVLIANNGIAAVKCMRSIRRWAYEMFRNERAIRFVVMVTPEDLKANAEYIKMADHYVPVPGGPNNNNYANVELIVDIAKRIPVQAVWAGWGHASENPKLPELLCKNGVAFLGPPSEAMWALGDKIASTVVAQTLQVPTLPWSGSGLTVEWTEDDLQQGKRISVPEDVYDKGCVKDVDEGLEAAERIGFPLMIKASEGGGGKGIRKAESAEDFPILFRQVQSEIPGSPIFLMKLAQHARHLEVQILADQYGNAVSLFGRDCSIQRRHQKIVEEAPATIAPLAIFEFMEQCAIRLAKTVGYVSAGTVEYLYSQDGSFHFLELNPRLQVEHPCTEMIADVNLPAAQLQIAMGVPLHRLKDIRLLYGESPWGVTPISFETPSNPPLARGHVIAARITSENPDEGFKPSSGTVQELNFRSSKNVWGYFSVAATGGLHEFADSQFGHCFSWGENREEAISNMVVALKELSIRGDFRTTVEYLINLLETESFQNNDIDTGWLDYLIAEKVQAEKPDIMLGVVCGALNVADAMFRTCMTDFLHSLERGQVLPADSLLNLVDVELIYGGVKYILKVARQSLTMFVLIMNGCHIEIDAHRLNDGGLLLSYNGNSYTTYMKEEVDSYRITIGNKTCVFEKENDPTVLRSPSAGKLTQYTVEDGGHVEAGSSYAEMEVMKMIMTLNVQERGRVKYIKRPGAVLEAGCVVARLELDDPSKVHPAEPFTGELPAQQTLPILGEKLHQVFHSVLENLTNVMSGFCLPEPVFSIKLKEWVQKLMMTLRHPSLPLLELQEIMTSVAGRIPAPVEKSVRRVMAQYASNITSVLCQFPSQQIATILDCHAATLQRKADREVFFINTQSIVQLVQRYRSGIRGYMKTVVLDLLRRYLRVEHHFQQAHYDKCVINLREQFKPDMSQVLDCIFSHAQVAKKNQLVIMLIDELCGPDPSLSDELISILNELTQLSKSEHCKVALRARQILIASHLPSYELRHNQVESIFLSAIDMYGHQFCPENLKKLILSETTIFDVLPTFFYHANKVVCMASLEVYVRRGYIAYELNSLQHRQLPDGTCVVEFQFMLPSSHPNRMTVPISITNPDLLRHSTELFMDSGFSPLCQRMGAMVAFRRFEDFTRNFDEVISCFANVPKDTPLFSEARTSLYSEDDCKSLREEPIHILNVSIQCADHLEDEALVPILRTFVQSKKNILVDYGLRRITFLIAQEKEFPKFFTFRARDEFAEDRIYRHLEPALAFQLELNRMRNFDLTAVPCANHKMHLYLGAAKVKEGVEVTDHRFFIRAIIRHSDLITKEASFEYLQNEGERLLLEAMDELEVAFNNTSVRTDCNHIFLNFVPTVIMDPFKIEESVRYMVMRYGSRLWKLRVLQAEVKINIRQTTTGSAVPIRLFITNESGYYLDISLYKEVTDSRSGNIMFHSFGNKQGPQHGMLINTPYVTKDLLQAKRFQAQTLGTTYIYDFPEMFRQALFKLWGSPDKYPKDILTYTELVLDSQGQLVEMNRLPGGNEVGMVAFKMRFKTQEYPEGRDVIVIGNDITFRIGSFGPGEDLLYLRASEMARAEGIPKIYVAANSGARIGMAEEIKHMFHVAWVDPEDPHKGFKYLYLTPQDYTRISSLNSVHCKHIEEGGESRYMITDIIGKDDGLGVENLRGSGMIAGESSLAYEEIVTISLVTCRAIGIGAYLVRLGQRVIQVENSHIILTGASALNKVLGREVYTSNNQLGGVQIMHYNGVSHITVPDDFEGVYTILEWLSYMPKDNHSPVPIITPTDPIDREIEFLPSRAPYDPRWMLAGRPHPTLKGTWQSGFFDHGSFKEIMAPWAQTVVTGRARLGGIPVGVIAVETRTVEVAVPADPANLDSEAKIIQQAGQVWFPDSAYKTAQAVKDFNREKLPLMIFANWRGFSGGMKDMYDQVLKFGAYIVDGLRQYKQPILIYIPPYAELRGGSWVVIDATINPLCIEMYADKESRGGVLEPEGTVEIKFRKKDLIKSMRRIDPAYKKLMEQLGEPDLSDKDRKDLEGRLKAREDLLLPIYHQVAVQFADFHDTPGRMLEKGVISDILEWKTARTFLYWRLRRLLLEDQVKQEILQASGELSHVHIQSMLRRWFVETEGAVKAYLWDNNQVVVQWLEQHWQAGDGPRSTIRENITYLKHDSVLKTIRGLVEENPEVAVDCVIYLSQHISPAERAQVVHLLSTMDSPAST
For orientation: IC50 means the concentration needed to halve the response being measured. On to `CCOc1ccc(OC2CN(c3ccc([C@H](C)NC(=O)C4CC4)cc3)C2)c(F)c1` [Example 7.2, (S)-Cyclopropanecarboxylic acid (1-{4-[3-(4-ethoxy-2-fluoro-phenoxy)-azetidin-1-yl]-phenyl}-ethyl)-amide], for which the IC50 was 2420 nM.

In the case of `CCOc1ccc(OC2CN(c3ccc([C@H](C)NC(=O)N(C)C)cc3)C2)c(F)c1` [Example 8.1, (S)-3-(1-{4-[3-(4-Ethoxy-2-fluoro-phenoxy)-azetidin-1-yl]-phenyl}-ethyl)-1,1-dimethyl-urea], the concentration for half-maximal inhibition (IC50) is 250 nM. Regarding `CCOc1ccc(OC2CN(c3ccc([C@H](C)NC(=O)c4cn[nH]c4)cc3)C2)c(F)c1` [Example 8.2, (S)-1H-Pyrazole-4-carboxylic acid (1-{4-[3-(4-ethoxy-2-fluoro-phenoxy)-azetidin-1-yl]-phenyl}-ethyl)-amide], the IC50 was 2980 nM. The figure for `C[C@H](NC(=O)OC(C)(C)C)c1ccc(N2CC(Oc3ccc(OCC4CC4)cc3)C2)cc1` [Example 8.3, (S)-(1-{4-[3-(4-Cyclopropylmethoxy-phenoxy)-azetidin-1-yl]-phenyl}-ethyl)-carbamic acid tert-butyl ester] is 1370 nM; for `CCOc1ccc(OC2CN(c3ccc([C@H](C)NC(=O)c4sc(NC(C)=O)nc4C)cc3)C2)c(F)c1` [Example 8.4, (S)-2-Acetylamino-4-methyl-thiazole-5-carboxylic acid (1-{4-[3-(4-ethoxy-2-fluoro-phenoxy)-azetidin-1-yl]-phenyl}-ethyl)-amide] it is 110 nM; for `CC(=O)N[C@@H](C)c1ccc(N2CC(Oc3ccc(OCc4ccccc4)cc3)C2)cc1` [Example 8.5, (S)—N-(1-{4-[3-(4-Benzyloxy-phenoxy)-azetidin-1-yl]-phenyl}-ethyl)-acetamide] it is 140 nM. Turning to `CCOc1ccc(OC2CN(c3ccc(C(C)NC(C)=O)cn3)C2)cc1` (stereo not drawn) [Example 8.6, N-(1-{6-[3-(4-Ethoxy-phenoxy)-azetidin-1-yl]-pyridin-3-yl}-ethyl)-acetamide], the 50% inhibitory concentration (IC50) was found to be 170 nM.

For `CC(=O)N[C@@H](C)c1ccc(N2CC(Oc3cc(OCc4ccccc4)ccn3)C2)cc1` [Example 8.7, (S)—N-(1-{4-[3-(4-Benzyloxy-pyridin-2-yloxy)-azetidin-1-yl]-phenyl}-ethyl)-acetamide], the half-maximal inhibitory concentration (IC50) is 2240 nM. `CC(=O)N[C@@H](C)c1ccc(N2CC(Oc3ccc(C(F)(F)F)cn3)C2)cc1` [Example 8.8, (S)—N-(1-{4-[3-(5-Trifluoromethyl-pyridin-2-yloxy)-azetidin-1-yl]-phenyl}-ethyl)-acetamide]: the half-inhibitory concentration (IC50) was 810 nM. In the case of `CC(=O)N[C@@H](C)c1ccc(N2CC(Oc3ccc(OC(C)C)cc3)C2)cc1` [Example 9.1, (S)—N-(1-{4-[3-(4-Isopropoxy-phenoxy)-azetidin-1-yl]-phenyl}-ethyl)-acetamide], the half-inhibitory concentration (IC50) worked out at 70 nM. In the case of `CCOc1ccc(OC2CN(c3ccc([C@H](C)NC(C)=O)cc3)C2)cc1` [Example 9.2], the IC50 is 90 nM. The figure for `CCCOc1ccc(OC2CN(c3ccc([C@H](C)NC(C)=O)cc3)C2)cc1` [Example 9.3] is 50 nM; for `CC(=O)N[C@@H](C)c1ccc(N2CC(Oc3ccc(OC4CCC4)cc3)C2)cc1` [Example 9.4] it is 40 nM.

As to `CC(=O)N[C@@H](C)c1ccc(N2CC(Oc3ccc(OCC4CC4(F)F)cc3)C2)cc1` (stereo partly drawn) [Example 9.5], the half-inhibitory concentration (IC50) was 40 nM. With `CC(=O)N[C@@H](C)c1ccc(N2CC(Oc3ccc(C)c(F)c3F)C2)cc1` [Example 10.1, (S)—N-(1-{4-[3-(2,3-Difluoro-4-methyl-phenoxy)-azetidin-1-yl]-phenyl}-ethyl)-acetamide], the IC50 is 1280 nM. To `CC(=O)N[C@@H](C)c1ccc(N2CC(Oc3ccc(OC(F)(F)F)cc3)C2)cc1` [Example 10.2] belongs 780 nM. The figure for `CC(=O)N[C@@H](C)c1ccc(N2CC(Oc3ccc(-n4cccc4)cc3Cl)C2)cc1` [Example 10.3] is 910 nM; for `COc1ccc(OC2CN(c3ccc([C@H](C)NC(C)=O)cc3)C2)c(F)c1` [Example 10.4] it is 280 nM; for `CC(=O)N[C@@H](C)c1ccc(N2CC(Oc3ccc(OC(C)(C)C)cc3)C2)cc1` [Example 10.5] it is 640 nM. The figure for `CCOc1cc(F)c(OC2CN(c3ccc([C@H](C)NC(C)=O)cc3)C2)c(F)c1` [Example 10.6] is 330 nM; for `CCOc1ccc(OC2CN(c3ccc([C@H](C)NC(C)=O)cc3)C2)c(F)c1F` [Example 10.7] it is 200 nM. For the compound `COc1ccc(OC2CN(c3ccc([C@H](C)NC(C)=O)cc3)C2)cn1` [Example 10.8], the IC50 is 740 nM. As to `CCC(C)c1ccc(OC2CN(c3ccc([C@H](C)NC(C)=O)cc3)C2)cc1` (stereo partly drawn) [Example 10.10], the IC50 worked out at 120 nM. Take `CC(=O)N[C@@H](C)c1ccc(N2CC(Oc3ccc4oc(C)cc4c3)C2)cc1` [Example 10.11]: the IC50 came to 100 nM. Take `CC(=O)N[C@@H](C)c1ccc(N2CC(Oc3ccccc3)C2)cc1` [Example 10.12]: the IC50 was 790 nM. `CC(=O)N[C@@H](C)c1ccc(N2CC(Oc3ccc4c(c3)OCO4)C2)cc1` [Example 10.13]: the concentration for half-maximal inhibition (IC50) is 320 nM. The figure for `CC(=O)N[C@@H](C)c1ccc(N2CC(Oc3ccc(C)cc3)C2)cc1` [Example 10.14] is 610 nM; for `CC(=O)N[C@@H](C)c1ccc(N2CC(Oc3ccccc3C)C2)cc1` [Example 10.15] it is 950 nM; for `CC(=O)N[C@@H](C)c1ccc(N2CC(Oc3ccc(Cl)cc3F)C2)cc1` [Example 10.16] it is 2230 nM. The figure for `CC(=O)N[C@@H](C)c1ccc(N2CC(Oc3cc(C(F)(F)F)ccc3F)C2)cc1` [Example 10.17] is 110 nM; for `COc1ccc(OC2CN(c3ccc([C@H](C)NC(C)=O)cc3)C2)c(F)c1F` [Example 10.18] it is 560 nM. To `COCCOc1ccc(OC2CN(c3ccc([C@H](C)NC(C)=O)cc3)C2)cc1` [Example 10.19] belongs 140 nM; to `C[C@H](NC(=O)C1CC1)c1ccc(N2CC(Oc3ccc(OC(F)(F)F)cc3)C2)cc1` [Example 10.20], 4400 nM; to `COc1ccc(OC2CN(c3ccc([C@H](C)NC(=O)C4CC4)cc3)C2)c(F)c1` [Example 10.21], 3990 nM.

As to `C[C@H](NC(=O)C1CC1)c1ccc(N2CC(Oc3ccc(OC(C)(C)C)cc3)C2)cc1` [Example 10.22], the 50% inhibitory concentration (IC50) turned out to be 1270 nM. To `CCOc1cc(F)c(OC2CN(c3ccc([C@H](C)NC(=O)C4CC4)cc3)C2)c(F)c1` [Example 10.23] belongs 130 nM; to `CCOc1ccc(OC2CN(c3ccc([C@H](C)NC(=O)C4CC4)cc3)C2)c(F)c1F` [Example 10.24], 2260 nM; to `COc1ccc(OC2CN(c3ccc([C@H](C)NC(=O)C4CC4)cc3)C2)cn1` [Example 10.25], 3370 nM. The figure for `CCC(C)c1ccc(OC2CN(c3ccc([C@H](C)NC(=O)C4CC4)cc3)C2)cc1` (stereo partly drawn) [Example 10.26] is 370 nM; for `Cc1cc2cc(OC3CN(c4ccc([C@H](C)NC(=O)C5CC5)cc4)C3)ccc2o1` [Example 10.27] it is 170 nM; for `C[C@H](NC(=O)C1CC1)c1ccc(N2CC(Oc3ccc4c(c3)OCO4)C2)cc1` [Example 10.28] it is 2080 nM. As for `COc1ccc(OC2CN(c3ccc([C@H](C)NC(C)=O)cc3)C2)c(Cl)c1` [Example 10.29], the 50% inhibitory concentration (IC50) came to 570 nM.

The record behind these values is patent US8530461B2 (Boehringer Ingelheim International GmbH, priority 2011, dated 2013).
